This note sets out measurements from US20240408093A1, “HETEROBIFUNCTIONAL COMPOUNDS AND THEIR USE IN TREATING DISEASE” (HALDA THERAPEUTICS OPCO, INC., priority 2022, published 2024).

A value given as a limit tells only on which side of the number the result lay.

One assay has as its system HEK293 cells. Nature of the assay: Cellular growth inhibition assay, HEK293 cells (Example 15). The class given is cell-based. The settings on record: Homo sapiens, 72 h, three days, CellTiter-Glo 2.0. The protocol:
(§1) HEK293 and HeLa cells were cultured in DMEM medium supplemented with 10% fetal bovine serum and 1% Penn/Strep. Cells were seeded in white 384-well plates at 500 cells/well in 25 μL complete medium. Following seeding, plates were spun at 300×g for three minutes and cultured at 37° C. with 5% CO2 in a humidified tissue culture incubator.
(§2) After 24 hours, compounds were titrated in 100% DMSO and diluted in complete cell culture medium. A 25 μL aliquot of compound/media mixture was added to cells to bring total volume in the wells to 50 μL. DMSO alone was used as a negative control. Plates were then spun at 300×g for three minutes and stored at 37° C. with 5% CO2 for three days.
(§3) On Day 0 and Day 3 of compound treatment, cell viability was quantified with CellTiter-Glo 2.0 reagent (Promega). After equilibrating microplates at room temperature for 30 minutes, 25 μL CellTiter-Glo 2.0 reagent was dispensed into each well to bring total volume to 75 μL. Plates were mixed on a shaker for 2 minutes at 500 rpm, followed by a 10-minute incubation at room temperature. Following a quick spin, luminescence readings were measured with an EnVision Plate Reader. Data was normalized to DMSO treated Day 0 and Day 3 readings. […]

The subject of another assay is HeLa cells. Nature of the assay: Cellular growth inhibition assay, HeLa cells (Example 15). The class given is cell-based. The settings on record: Homo sapiens, 72 h, three days, CellTiter-Glo 2.0. As for the experimental part:
as §1, §2, §3

Regarding `C=C(CN(C(=O)NCc1ccc2c(c1)CN(C1CCC(=O)NC1=O)C2=O)c1ccc(C)c(Cl)c1)C(=O)N1CCC[C@@H](n2nc(-c3ccc(Oc4ccccc4)cc3)c3c(N)ncnc32)C1` (some centres unmarked) [Compound I-4], the GI50 in the assay with HEK293 cells was 1.5 to 10 µM; in the assay with HeLa cells it was over 10 µM.
